Reference: ChEMBL document CHEMBL4609981, “Discovery of novel nonpeptide small-molecule NRP1 antagonists: Virtual screening, molecular simulation and structural modification” (Bioorg Med Chem, 2020)
Activity calls are given as the source filed them. The calls are words filed in the database; no cut-off is given here.

What was measured:
Neuropilin-1 [1] = molecular target: T1, Neuropilin-1 (Homo sapiens, UniProt O14786); experiment: (§1) Inhibition of recombinant human biotinylated VEGF-165A expressed in HEK293 cells binding to immobilized recombinant full length human FC-tagged NRP1 (chimera active) expressed in HEK293 cells at 50 uM using TMB as substrate incubated for 2 hrs followed by substrate addition by competitive ELISA relative to control
Neuropilin-1 [2] = molecular target: T1, Neuropilin-1; experiment: Inhibition of biotinylated […] binding to NRP1 (unknown origin) measured after 2 hrs chemiluminescence analysis
Neuropilin-1 [3] = molecular target: T1, Neuropilin-1; experiment: Inhibition of recombinant human biotinylated VEGF-165A expressed in HEK293 cells binding to immobilized recombinant full length human FC-tagged NRP1 (chimera active) expressed in HEK293 cells using TMB as substrate incubated for 2 hrs followed by substrate addition by competitive ELISA
[4] = molecular target: Vascular endothelial growth factor receptor 2 (Homo sapiens) (UniProt P35968); experiment: Inhibition of recombinant human biotinylated VEGF-165A expressed in HEK293 cells binding to FC-tagged VEGFR2 (unknown origin) using TMB as substrate incubated for 2 hrs followed by substrate addition by competitive ELISA
Neuropilin-1 [5] = molecular target: T1, Neuropilin-1; experiment: as §1, with “11” for “50”
Neuropilin-1 [6] = molecular target: T1, Neuropilin-1; experiment: Inhibition of biotinylated VEGF-165A binding to NRP1 (unknown origin) at 10 uM measured after 2 hrs chemiluminescence analysis relative to control

T1 sequence (O14786 whole entry): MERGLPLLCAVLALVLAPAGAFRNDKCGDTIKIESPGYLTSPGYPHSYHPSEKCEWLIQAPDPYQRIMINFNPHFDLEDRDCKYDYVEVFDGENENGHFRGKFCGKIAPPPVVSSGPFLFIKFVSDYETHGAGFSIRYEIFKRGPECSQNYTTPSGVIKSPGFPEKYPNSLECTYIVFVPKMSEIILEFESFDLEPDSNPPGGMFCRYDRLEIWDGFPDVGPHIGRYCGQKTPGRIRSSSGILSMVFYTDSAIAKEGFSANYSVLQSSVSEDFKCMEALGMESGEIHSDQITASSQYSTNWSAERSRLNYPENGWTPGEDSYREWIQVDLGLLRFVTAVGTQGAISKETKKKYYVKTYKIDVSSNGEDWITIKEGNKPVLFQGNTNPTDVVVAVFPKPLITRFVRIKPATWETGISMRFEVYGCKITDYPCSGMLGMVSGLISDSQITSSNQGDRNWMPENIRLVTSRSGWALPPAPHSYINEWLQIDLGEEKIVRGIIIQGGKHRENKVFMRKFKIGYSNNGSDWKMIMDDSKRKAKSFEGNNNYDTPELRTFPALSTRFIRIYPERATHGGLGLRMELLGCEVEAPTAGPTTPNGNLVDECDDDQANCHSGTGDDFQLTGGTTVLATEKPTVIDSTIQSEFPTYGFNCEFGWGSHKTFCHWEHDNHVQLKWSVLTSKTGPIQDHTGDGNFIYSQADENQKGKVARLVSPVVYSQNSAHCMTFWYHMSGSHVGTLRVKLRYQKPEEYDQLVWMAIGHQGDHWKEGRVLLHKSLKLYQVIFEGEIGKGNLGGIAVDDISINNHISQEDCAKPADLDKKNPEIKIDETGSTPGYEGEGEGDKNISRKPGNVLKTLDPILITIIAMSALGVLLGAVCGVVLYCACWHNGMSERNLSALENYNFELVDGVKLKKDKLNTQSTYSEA
Vascular endothelial growth factor receptor 2 (Homo sapiens), sequence (P35968 whole entry): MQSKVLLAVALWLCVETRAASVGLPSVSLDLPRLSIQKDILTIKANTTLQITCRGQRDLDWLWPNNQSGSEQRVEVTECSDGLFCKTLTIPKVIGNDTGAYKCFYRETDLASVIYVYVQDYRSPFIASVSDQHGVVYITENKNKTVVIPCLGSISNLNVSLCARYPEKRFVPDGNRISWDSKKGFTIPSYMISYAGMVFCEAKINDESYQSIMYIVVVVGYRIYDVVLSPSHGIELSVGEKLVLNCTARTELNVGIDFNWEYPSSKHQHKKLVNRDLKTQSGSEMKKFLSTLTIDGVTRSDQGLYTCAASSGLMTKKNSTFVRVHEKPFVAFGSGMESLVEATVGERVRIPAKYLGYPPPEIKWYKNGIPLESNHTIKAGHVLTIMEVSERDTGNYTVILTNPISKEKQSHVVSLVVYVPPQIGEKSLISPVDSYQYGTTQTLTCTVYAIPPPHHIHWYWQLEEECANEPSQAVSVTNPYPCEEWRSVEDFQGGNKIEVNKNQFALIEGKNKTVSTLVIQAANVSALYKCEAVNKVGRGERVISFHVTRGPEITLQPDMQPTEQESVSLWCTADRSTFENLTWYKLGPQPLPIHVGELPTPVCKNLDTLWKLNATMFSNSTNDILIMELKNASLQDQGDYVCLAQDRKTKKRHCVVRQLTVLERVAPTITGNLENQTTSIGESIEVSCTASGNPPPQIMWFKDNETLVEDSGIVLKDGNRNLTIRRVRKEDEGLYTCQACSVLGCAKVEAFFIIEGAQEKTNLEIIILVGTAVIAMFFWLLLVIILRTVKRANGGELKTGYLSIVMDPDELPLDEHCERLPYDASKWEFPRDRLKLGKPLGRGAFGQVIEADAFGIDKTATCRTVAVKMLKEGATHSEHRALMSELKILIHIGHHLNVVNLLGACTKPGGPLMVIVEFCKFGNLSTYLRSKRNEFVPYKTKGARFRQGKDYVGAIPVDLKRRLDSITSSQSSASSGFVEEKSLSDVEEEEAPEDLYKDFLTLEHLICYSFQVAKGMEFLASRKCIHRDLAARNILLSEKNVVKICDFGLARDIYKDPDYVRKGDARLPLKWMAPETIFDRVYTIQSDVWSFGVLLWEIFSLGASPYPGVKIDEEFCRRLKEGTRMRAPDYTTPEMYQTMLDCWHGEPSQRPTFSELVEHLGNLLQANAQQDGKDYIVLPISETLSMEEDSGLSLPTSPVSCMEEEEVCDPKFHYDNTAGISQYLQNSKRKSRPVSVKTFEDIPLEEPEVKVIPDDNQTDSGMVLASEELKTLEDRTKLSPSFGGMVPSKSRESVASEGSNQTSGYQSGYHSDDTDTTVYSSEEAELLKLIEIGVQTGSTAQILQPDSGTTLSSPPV

inhibition (Neuropilin-1 [1]) [%]	SMILES	other results
0	CCc1nnc(NC(=O)CSc2nnc(-c3ccccc3)n2-c2cccc(OC)c2)s1	
31.5	Cc1cccc(-n2c(SCC(=O)Nc3nnc(C)s3)nnc2-c2ccccc2)c1	
66.6	CCc1nnc(NC(=O)CSc2nnc(-c3ccccc3)n2-c2cccc(C)c2)s1	IC50 (Neuropilin-1 [3]): 41.1 µM
4.8	CCc1nnc(NC(=O)CSc2nnc(-c3ccccc3)n2-c2ccccc2)s1	
3.2	CCc1nnc(NC(=O)CSc2nnc(-c3ccccc3)n2-c2ccc(Cl)cc2)s1	
6	CCc1nnc(NC(=O)CSc2nnc(-c3ccccc3)n2-c2cccc(F)c2)s1	
47.8	CCCc1nnc(NC(=O)CSc2nnc(-c3ccccc3)n2-c2cccc(C)c2)s1	
10.3	COCc1nnc(NC(=O)CSc2nnc(-c3ccccc3)n2-c2cccc(C)c2)s1	
4.3	CCc1nnc(NC(=O)CSc2nnc(Cc3ccccc3)n2-c2cccc(C)c2)s1	
5.3	CCc1nnc(NC(=O)CSc2nnc(-c3ccccc3)n2-c2ccccc2Cl)s1	
47.6	CCc1nnc(NC(=O)CSc2nnc(-c3ccccc3)n2-c2cccc(Cl)c2)s1	
4.1	CCc1nnc(NC(=O)CSc2nnc(-c3ccccc3)n2Cc2cccc(C)c2)s1	

More lines, now with the values behind:

SMILES	inhibition (Neuropilin-1 [1]) [%]	other results
O=C(CSc1nnc(-c2ccccc2)n1-c1cccc(Cl)c1)Nc1nccs1	4	
CCc1nnc(NC(=O)CSc2nnc(-c3ccccc3)[nH]2)s1	2.1	
CCc1nnc(NC(=O)CSc2nnc(-c3ccccc3)n2-c2cccnc2)s1	0	
Cc1ccc(-c2nc3ccccc3[nH]2)cc1NC(=S)NC(=O)c1ccc2c(c1)OCCO2		IC50 (Neuropilin-1 [2]): 34 µM
CCc1nnc(NC(=O)CSc2nnc(-c3cccnc3)n2-c2cccc(C)c2)s1	0	
CCc1nnc(NC(=O)CSc2nnc(-c3ccc(C)cc3)n2-c2cccc(C)c2)s1	76	inhibition [4]: Active; IC50 (Neuropilin-1 [3]): 19.1 µM
O=C(CSc1nnc(-c2ccccc2)n1-c1cccc(Cl)c1)Nc1nnc(C2CC2)s1	22.5	
CCc1nnc(NC(=O)CSc2nncn2-c2cccc(Cl)c2)s1	0	
CCc1nnc(NC(=O)CSc2nnc(-c3ccc(N)cc3)n2-c2cccc(C)c2)s1	15.4	
CCc1nnc(NC(=O)CSc2nnc(-c3ccc(O)cc3)n2-c2cccc(C)c2)s1	59.9	IC50 (Neuropilin-1 [3]): 41.7 µM
O=C(CSc1nnc(-c2ccccc2)n1-c1cccc(Cl)c1)Nc1nncs1	20.3	
CCc1nnc(NC(=O)CSc2nnc(-c3cccc(C)c3)n2-c2cccc(C)c2)s1	12.6	
N=C(N)NCCC[C@H](NC(=O)c1sccc1NS(=O)(=O)c1cccc2nsnc12)C(=O)O		inhibition (Neuropilin-1 [5]): 49.1 to 49.8%; inhibition [4]: Active; IC50 (Neuropilin-1 [3]): 11.1 to 12.7 µM
CCc1nnc(NC(=O)CSc2nnc(-c3ccc(Cl)cc3)n2-c2cccc(C)c2)s1	37.4	
CCOc1ccccc1NC(=O)c1ccc(C)c(S(=O)(=O)Nc2ccc(C)cc2)c1		inhibition (Neuropilin-1 [6]): 32%
